# Data reported in patent US9340819B2, “Method for detecting the presence of carbapenemase-producing bacteria in a sample” (priority 2011, dated 2016).
# Columns and labels:
# P. putida = experiment: Susceptibility testing by Etest on Mueller-Hinton agar (Example 3); assay type: cell-based; conditions: Pseudomonas putida
# Protocol: (§1) Susceptibility testing was performed using the Etest® (bioMérieux; La Balmes-les-Grottes, France) on Mueller-Hinton agar plates (Becton Dickinson, Le Pont de Chaix, France) at 37° C. and results were recorded according to US guidelines (CLSI), as updated in 2012. The breakpoints for imipenem, meropenem and doripenem are as follows; susceptibility (S)≦2, and resistance (R)≧8 μg/ml.
# P. stutzeri = experiment: as above; assay type: cell-based; conditions: Stutzerimonas stutzeri
# Protocol: as §1
# P. fluorescens = experiment: as above; assay type: cell-based; conditions: Pseudomonas fluorescens
# Protocol: as §1
# K. pneumoniae = experiment: MIC of carbapenem by Etest (Example 2); assay type: cell-based, Klebsiella pneumoniae
# Protocol: (§2) All strains had previously been characterized for their β-lactamase content at the molecular level. Minimum inhibitory concentration of carbapenem were determined using the Etest® (AB bioMérieux, Solna, Sweden) and results were recorded according to US guidelines (CLSI), as updated in 2011.
# C. freundii = experiment: MIC of carbapenem by Etest (Example 2); assay type: cell-based, Citrobacter freundii
# Protocol: as §2
# M. morganii = experiment: MIC of carbapenem by Etest (Example 2); assay type: cell-based, Morganella morganii; conditions: Plasmid mediated AmpC or chromosomal AmpC + decreased membrane permeability; M. morganii Overexpressed cephalosporinase, n=2
# Protocol: as §2
# E. sakazaki = experiment: MIC of carbapenem by Etest (Example 2); assay type: cell-based; conditions: ESBL + decreased membrane permeability; E. sakazaki CTX-M-15, n=1
# Protocol: as §2
# Salmonella spp. = experiment: MIC of carbapenem by Etest (Example 2); assay type: cell-based; conditions: Salmonella spp. KPC-2, n=1
# Protocol: as §2
# K. ozonae = experiment: MIC of carbapenem by Etest (Example 2); assay type: cell-based; conditions: K. ozonae KPC-3, n=1
# Protocol: as §2
# E. aerogenes = experiment: MIC of carbapenem by Etest (Example 2); assay type: cell-based, Enterobacter aerogenes
# Protocol: as §2
# E. coli = experiment: MIC of carbapenem by Etest (Example 2); assay type: cell-based, Escherichia coli
# Protocol: as §2
# P. mirabilis = experiment: MIC of carbapenem by Etest (Example 2); assay type: cell-based, Proteus mirabilis; conditions: Plasmid mediated AmpC or chromosomal AmpC + decreased membrane permeability; P. mirabilis ACC-1, n=1
# Protocol: as §2
# P. stuartii = experiment: MIC of carbapenem by Etest (Example 2); assay type: cell-based, Providencia stuartii; conditions: P. stuartii NDM-1, n=1
# Protocol: as §2
# S. marcescens = experiment: MIC of carbapenem by Etest (Example 2); assay type: cell-based, Serratia marcescens
# Protocol: as §2
# E. asburiae = experiment: MIC of carbapenem by Etest (Example 2); assay type: cell-based, Enterobacter asburiae; conditions: E. asburiae IMI-2, n=1
# Protocol: as §2
# E. cloacae = experiment: MIC of carbapenem by Etest (Example 2); assay type: cell-based, Enterobacter cloacae
# Protocol: as §2
# P. rettgeri = experiment: MIC of carbapenem by Etest (Example 2); assay type: cell-based, Proteus rettgeri
# Protocol: as §2
smiles,measurement,setting,value
"C[C@@H](O)[C@H]1C(=O)N2C(C(=O)O)=C(S[C@@H]3CN[C@H](C(=O)N(C)C)C3)[C@H](C)[C@H]12 [MER, meropenem]",MIC,"P. putida; CIP55, P. putida CIP 55-5, wild type, none",3 ng/mL
same,MIC,"P. putida; P. putida 9335, VIM-2",> 32 ng/mL
same,MIC,"P. putida; P. putida NTU 91/99, VIM-2",> 32 ng/mL
same,MIC,"P. putida; P. putida NTU 92/99, IMP-1",0.19 ng/mL
same,MIC,"P. stutzeri; P. stutzeri 13, DIM-1",> 32 ng/mL
same,MIC,"P. stutzeri; P. stutzeri P511503100, VIM-2",> 32 ng/mL
same,MIC,"P. stutzeri; P. stutzeri PB207, IMP-1",4 ng/mL
same,MIC,"P. fluorescens; P. fluorescens COU, VIM-2",> 32 ng/mL
same,MIC,"P. fluorescens; P. fluorescens, BIC-1",4 ng/mL
same,MICs range,"K. pneumoniae; ESBL + decreased membrane permeability, K. pneumoniae SHV-2a, n=1",0.38 mg/L
same,MICs range,"K. pneumoniae; ESBL + decreased membrane permeability, K. pneumoniae SHV-28, n=1",1 mg/L
same,MICs range,"K. pneumoniae; ESBLs, K. pneumoniae CTX-M-3, n=1",0.12 mg/L
same,MICs range,"K. pneumoniae; ESBLs, K. pneumoniae CTX-M-14, n=1",0.12 mg/L
same,MICs range,"K. pneumoniae; ESBLs, K. pneumoniae CTX-M-15, n=3",0.12 mg/L
same,MICs range,"K. pneumoniae; K. pneumoniae IMP-1, n=5",1 to 8 mg/L
same,MICs range,"K. pneumoniae; K. pneumoniae IMP-8, n=2",0.5 mg/L
same,MICs range,"K. pneumoniae; K. pneumoniae KPC-3, n=3",1 to 8 mg/L
same,MICs range,"K. pneumoniae; K. pneumoniae NDM-4, n=1",>32 mg/L
same,MICs range,"K. pneumoniae; K. pneumoniae OXA-181, n=2",0.5 to 1 mg/L
same,MICs range,"K. pneumoniae; K. pneumoniae VIM-19, n=1",4 mg/L
same,MICs range,"K. pneumoniae; Plasmid mediated AmpC or chromosomal AmpC + decreased membrane permeability, K. pneumoniae DHA-1, n=1",>32 mg/L
same,MICs range,"K. pneumoniae; Plasmid mediated AmpC or chromosomal AmpC + decreased membrane permeability, K. pneumoniae DHA-2, n=1",0.12 mg/L
same,MICs range,"C. freundii; C. freundii KPC-2, n=2",1.5 to 3 mg/L
same,MICs range,"C. freundii; C. freundii NDM-1, n=1",>32 mg/L
same,MICs range,"C. freundii; ESBL + decreased membrane permeability, C. freundii TEM-3, n=1",1 mg/L
same,MICs range,M. morganii,0.5 mg/L
same,MICs range,E. sakazaki,0.25 mg/L
same,MICs range,Salmonella spp.,0.25 mg/L
same,MICs range,K. ozonae,2 mg/L
same,MICs range,"E. aerogenes; E. aerogenes KPC-2, n=1",8 mg/L
same,MICs range,"E. aerogenes; Plasmid mediated AmpC or chromosomal AmpC + decreased membrane permeability, E. aerogenes Overexpressed cephalosporinase, n=1",0.75 mg/L
same,MICs range,"E. coli; E. coli IMP-1, n=2",0.5 to 1 mg/L
same,MICs range,"E. coli; E. coli IMP-8, n=1",3 mg/L
same,MICs range,"E. coli; E. coli KPC-2, n=5",0.5 to 2 mg/L
same,MICs range,"E. coli; E. coli NDM-1, n=7",1 to 16 mg/L
same,MICs range,"E. coli; E. coli OXA-48, n=6",0.12 to 1 mg/L
same,MICs range,"E. coli; E. coli VIM-1, n=2",0.5 to 1 mg/L
same,MICs range,"E. coli; E. coli VIM-2, n=2",0.38 to 0.5 mg/L
same,MICs range,"E. coli; E. coli VIM-19, n=1",4 mg/L
same,MICs range,"E. coli; ESBLs, E. coli CTX-M-1, n=1",0.12 mg/L
same,MICs range,"E. coli; ESBLs, E. coli CTX-M-3, n=1",0.12 mg/L
same,MICs range,"E. coli; ESBLs, E. coli CTX-M-14, n=2",0.12 mg/L
same,MICs range,"E. coli; ESBLs, E. coli CTX-M-15, n=2",0.12 mg/L
same,MICs range,"E. coli; ESBLs, E. coli VEB-1, n=1",0.12 mg/L
same,MICs range,"E. coli; Plasmid mediated AmpC or chromosomal AmpC + decreased membrane permeability, E. coli ACC-1, n=1",0.12 mg/L
same,MICs range,"E. coli; Plasmid mediated AmpC or chromosomal AmpC + decreased membrane permeability, E. coli CMY-2, n=1",0.12 mg/L
same,MICs range,"E. coli; Plasmid mediated AmpC or chromosomal AmpC + decreased membrane permeability, E. coli CMY-10, n=1",0.12 mg/L
same,MICs range,"E. coli; Plasmid mediated AmpC or chromosomal AmpC + decreased membrane permeability, E. coli DHA-1, n=1",0.12 mg/L
same,MICs range,"E. coli; Plasmid mediated AmpC or chromosomal AmpC + decreased membrane permeability, E. coli Extended spectrum cephalosporinase, n=1",0.12 mg/L
same,MICs range,"E. coli; Plasmid mediated AmpC or chromosomal AmpC + decreased membrane permeability, E. coli Overexpressed cephalosporinase, n=1",2 mg/L
same,MICs range,P. mirabilis,0.12 mg/L
same,MICs range,P. stuartii,1.5 mg/L
same,MICs range,"S. marcescens; S. marcescens IMP-11, n=1",2 mg/L
same,MICs range,"S. marcescens; S. marcescens KPC-2, n=2",>32 mg/L
same,MICs range,"S. marcescens; S. marcescens SME-1, n=1",12 mg/L
same,MICs range,"S. marcescens; S. marcescens SME-2, n=1",12 mg/L
same,MICs range,"S. marcescens; S. marcescens VIM-2, n=1",>32 mg/L
same,MICs range,E. asburiae,>32 mg/L
same,MICs range,"E. cloacae; E. cloacae GES-5, n=1",>32 mg/L
same,MICs range,"E. cloacae; E. cloacae IMP-8, n=2",0.5 to 1 mg/L
same,MICs range,"E. cloacae; E. cloacae KPC-2, n=7",0.75 to 16 mg/L
same,MICs range,"E. cloacae; E. cloacae NDM-1, n=1",2 mg/L
same,MICs range,"E. cloacae; E. cloacae NMC-A, n=1",16 mg/L
same,MICs range,"E. cloacae; E. cloacae OXA-48, n=3",0.5 to 1.5 mg/L
same,MICs range,"E. cloacae; ESBLs, E. cloacae CTX-M-15, n=3",0.12 mg/L
same,MICs range,"E. cloacae; ESBLs, E. cloacae VEB-1, n=1",0.12 mg/L
same,MICs range,"P. rettgeri; P. rettgeri NDM-1, n=1",1.5 mg/L
same,MICs range,"P. rettgeri; P. rettgeri OXA-181, n=1",2 mg/L
